Laboratory results as given in patent US10172835B2, “Anticancer agent composition” (J-Pharma Co., Ltd., priority 2014, dated 2019).

Tests used:
[1] = system: KO99L-LUC cells (tPTEN−/− tumor); assay: In vivo growth of subcutaneous KO99L-LUC tumors in nude mice (volume, bioluminescence, immunohistochemistry)
Protocol: All mice in each experimental group were subcutaneous injected with 99KOL-LUC T-lymphoma cells (200 μL; 5.0±0.1×10^6) stably expressing a reporter luciferase gene. After two days post injection, mice were intraperitoneally administered COMPOUND-JP (50 mg/kg/day/5 days a week) which had been prepared by dissolving drug powder and mixing into saline (NaCl 0.9%). Body weights and tumor volumes were measured every five days. Tumor volumes were calculated according to the mathematical formula: V=(L*W^2)/2 (L:Length; W:Width). To conduct the bioluminescence imaging, mice received an intraperitoneal injection (150 μL, 30 mg/mL) of D-luciferin (Caliper Life Science) and were anesthetized via inhaled isoflurane (2.0%). Bioluminescence signals were monitored using the Photon imager (Biospace Lab) equipped with a highly sensitive cooled CCD camera; all images were collected 10 min post D-luciferin injection. Data were analyzed using total photon flux emission (photons/second) focused on the regions of interest (ROI) enveloping the tumor region.
Sections (4 μm) in paraffin blocks of dissected tumors were labeled with a primary rabbit phospho-S6RP antibody (#4858, Cell Signaling Technology). A second, anti-rabbit antibody conjugated with peroxidase (HRP) (SignalStain®, #8114, Cell Signaling Technology) was added to the sections before revelation with diaminobenzidine (DAB) as recommended by the manufacturer. For necrosis evaluation, sections were stained with hematoxylin/eosin/safran (HES). The images were analyzed and necrosis areas quantified using the ImageJ software (NIH).

primary tPTEN−/− cells = assay: Cell death of primary tPTEN−/− lines, PI staining and Facs; format: cell-based, murine; settings: 2.5-20.0 μM, 48 h, five primary tumors
LC3 = assay: Western blot of LC3 processing (autophagy), KO99L cells; format: cell-based, murine; settings: 10.0 μM
Protocol: (§1) Cell extracts were prepared using a cell lysis buffer (50 mM HEPES, pH 7.4, 150 mM NaCl, 20 mM EDTA, 100 mM NaF, 10 mM Na3VO4, 0.5% nonyl phenoxypolyethoxylethanol (NP40) supplemented with a cocktail of protease inhibitors. After SDS-PAGE separation and transfer to nitrocellulose immunoblotting was performed using the following antibodies against: Akt (Cell Signaling Technologies, #9272), CHOP (#2895), cleaved caspase 3 (#9664), c-Myc (#9402), eIF2a (#9721), 4EBP1 (#9644), LC3A/B (#12741), PARP (#9542), pJnk (T183/Y185) (#9251), pSer235-236-S6RP (#4856), pSer473-Akt (#9271), pSer65-4EBP1 (#9451) and S6RP (#2217); Bax (Sigma-Aldrich, B8429); PUMA (Abcam, ab54288); Bak (Millipore, 06536); ATF4 (Santa Cruz Biotechnologies, sc200), GADD34 (sc8327), Hsp60 (sc-1722), Hsp90 (sc-13119) and XBP1 (sc-7160); ATF6 (Imgenex, IMG-273).

HT-29 colon cancer cells = settings: Reference 43; cited from earlier work
mTORC1 / Akt activation = assay: Western blot of S6RP, 4EBP1 and Akt phosphorylation, KO99L cells; format: cell-based, murine; settings: 2.0-24 h; COMPOUND-JP 10.0 μM; MK-2206 5.0 μM; KU0063794 5.0 μM; rapamycin 10.0 nM; L-Asp, Erw 2.5 units/ml; velcade at 24 h
[2] = system: Panc-1 cell derived from human pancreatic cancer; assay: MTT proliferation of Panc-1 cells; format: cell-based; settings: Panc-1, culture 5 days
Protocol: The culture in the absence of COM-JP and in the presence of COM-JP with different concentrations in the culture medium of each cancer cell was continued for 5 days. Proliferation activity of the cell on each elapsed day was measured by a MTT method.

KO99-RJ cells = assay: Cell death (PI staining) of KO99-RJ cells; format: cell-based, murine; settings: 48 h
[3] = system: normal cord blood mononuclear cells; assay: Viability of normal human cord blood mononuclear cells (DAPI, Facs); format: cell-based; settings: 5.0 and 10.0 μM, 48 h
KO99-S cells = assay: Cell death (PI staining) of parental KO99-S cells; format: cell-based, murine; settings: 48 h
KO99L cells = assay: Annexin-V / DAPI apoptosis assay, KO99L cells; format: cell-based, murine; settings: 48 hr
Protocol: Apoptosis assessment was performed by measuring phosphatidyl-serine membrane redistribution via annexin-V-FITC (Invitrogen). Cells (5.0±0.1×10^5 per well; 2.0 mL) were incubated with effectors, and re-suspended in staining solution (110 μL; Annexin-V ( 1/10) and incubated in the dark (15 min, RT). […] Basal apoptosis and necrosis were determined on control untreated cells.

Bcl2 family members = assay: Western blot of Bcl2 family members, KO99L cells; format: cell-based, murine; settings: 10.0 μM, starting at 6.0 h
Protocol: as §1

[4] = system: normal resting or activated human PBL cells; assay: Cell death analysis of resting or activated human PBL; format: cell-based
caspase 3 [5] = assay: Western blot of caspase 3 activation and PARP cleavage in primary tPTEN−/− tumor cells (KO#732); format: cell-based, murine; settings: primary KO#732 cells; COMPOUND-JP 5.0, 10.0 μM; PI-103 10.0 μM; rapamycin 10.0 nM; 2.0-18.0 h
Protocol: as §1

Jurkat T-ALL line = assay: Cell viability of Jurkat human T-ALL cells; format: cell-based
Protocol: Two different assays were employed: i) In a 96-well plate format, cells (4.0±0.1×10^4 per well; 100 μL) were incubated with effectors (48 h, 37° C.; n=4 per experiment) and then WST-1 reagent (10 μL; Roche Diagnostics) added to each well of 96-well plates, incubated, and the formazan production was measured at 490 nm; and ii) cells (2.0±0.1×10^4 per well; 100 μL) were incubated with effectors (48 h, 37° C.; n=4 per experiment) and then bromodeoxyuridine reagent (10 μL/well; Roche Diagnostics) was added to each well and incubated (8 h, 37° C.). The cells were then fixed, denatured and incubated with anti-BrdU-conjugated with peroxidase (POD) antibody (100 μL/well). Colorimetric substrate (TMB: tetramethyl-benzidine; 100 μL/well) was added and BrdU incorporation quantified via optical density measurement (450 nm) which corresponds to DNA synthesis and proliferating cells.

caspase 3 [6] = assay: Western blot of caspase 3 activation and PARP cleavage, KO99L cells; format: cell-based, murine; settings: 10.0 μM
Protocol: as §1

SMILES: Nc1cc(COc2c(Cl)cc(C[C@H](N)C(=O)O)cc2Cl)c2oc(-c3ccccc3)nc2c1 [COMPOUND-JP, O-(5-amino-2-phenylbenzoxazole-7-yl)methyl-3,5-dichloro-L-tyrosine]
- decrease of mean tumor volume ([1]; 50 mg/kg/day, day 18, vs vehicle treated group, p<0.05): 45%
- decrease of tumor luminescence ([1]; 50 mg/kg/day, p<0.05): 59%
- necrotic response within the tumors ([1]; treated mice, untreated 4.6+/−0.5%): 10.5+/−0.5%
- pS6RP staining in tumors ([1]; tumors from treated mice, 50 mg/kg/day): dramatically decreased
- cell death in primary tPTEN−/− cells (primary tPTEN−/− cells): dose dependent
- LC3-II accumulation (LC3): stimulated LC3-II accumulation
- growth of HT-29 colon cancer cells transplanted in nude mice (HT-29 colon cancer cells): reduce the growth
- 4EBP1 phosphorylation (mTORC1 / Akt activation): no effect
- Akt phosphorylation (serine 473) / activation (mTORC1 / Akt activation): interfered with Akt activation
- S6RP phosphorylation (mTORC1 activation) (mTORC1 / Akt activation): affect mTORC1 activation as early as 2.0 h
- proliferation activity [2]: dose-dependent decrease
- cell death (KO99-RJ cells): far less efficient
- normal cord blood mononuclear cells (living cells) [3]: did not significantly alter
- cell death (KO99-S cells): concentration dependent cell death
- levels of apoptosis (annexin-V+ and annexin-V+/DAPI+) compared to control (KO99L cells; 10.0 μM): 2.8 fold
- levels of apoptosis (annexin-V+ and annexin-V+/DAPI+) compared to control (KO99L cells; 20.0 μM): 3.8 fold
- protein levels of four pro-apoptotic members: Bak, Bax, PUMA and Bim (Bcl2 family members): increased protein levels
- cell death [4]: did not induce cell death
- caspase 3 processing and PARP cleavage (apoptosis) (caspase 3 [5]): induced caspase 3 processing and PARP cleavage
- cell survival (Jurkat T-ALL line): alter cell survival
- caspase 3 cleavage (caspase 3 [6]; 48 hr): essentially all cellular caspase 3 was processed
- caspase 3 cleavage (caspase 3 [6]; four-to-six hour post addition): caspase 3 cleavage could be observed
- PARP cleavage (caspase 3 [6]; 24 h): fully cleaved
